Experimental data reported in patent publication US5242945A, “Tetronic and thiotetronic acid derivatives as phospholipase A2 inhibitors” (American Home Products Corporation, priority 1991, dated 1993).

What was measured:
human platelet PLA2 = target: T1, human platelet PLA2 (Homo sapiens, UniProt P14555); test: in vitro isolated phospholipase A2 assay, human platelet PLA2; type: biochemical; conditions: for inhibition at 10 µM / inhibition at 50 µM: read-out: % Inhibition HP (human platelet)
T1 construct: platelet acid extract PLA2; from tissue; host or cells: human platelets, semipurified acid extract
T1 sequence (P14555 21-144): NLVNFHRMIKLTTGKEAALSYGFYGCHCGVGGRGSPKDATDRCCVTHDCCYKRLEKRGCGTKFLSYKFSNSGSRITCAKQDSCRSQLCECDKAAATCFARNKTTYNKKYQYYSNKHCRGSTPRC
Procedure: (§1) The compounds of the invention are tested in an in vitro isolated phospholipase A2 assay to determine the ability of the test compounds to inhibit the release of arachidonic acid from an arachidonic acid-containing substrate by the action of phospholipase A2 enzyme from human and non-human sources.
(§2) Into a 15 mL polypropylene tube are added the following:
(§3) ^3 H-AA E. coli substrate^1
(§4) Tris-HCl (0.5 M) pH 7.5^3
(§5) PLA2 25 Volume yielding 12%
(§6) 100 hydrolysis in 10 min.
(§7) *pre-incubate at room temperature 30 min prior to substrate addition.
(§8) ^6 Two human PLA2 enzymes are used: a) Semipurified human
(§9) platelet acid extract PLA2 (in 10 mM sodium acetate buffer, pH 4.5).
(§10) Remove protein precipitate by centrifugation at about 2200 rpm for 10
(§11) minutes. b) Purified human synovial fluid.
(§12) Incubate the 100 μL reaction mixture for 10 minutes at 37° C. in a shaking water bath. The reaction is terminated by the addition of 2 mL tetrahydrofuran, followed by vortexing. NH2 columns (100 μg/mL--Analytichem International) are conditioned with 0.5 mL tetrahydrofuran followed by 0.5 mL tetrahydrofuran/water (2 mL:0.1 mL, v/v).
(§13) The sample is loaded onto the columns and slowly drawn through them. The hydrolyzed arachidonic acid retained in the columns is eluted therefrom with 1 mL tetrahydrofuran/glacial acetic acid (2%). The arachidonic acid is transferred to scintillation vials and quantitated by β-counting analysis. A "total counts" sample is prepared by pipetting 25 μL ^3 H-arachidonate E. coli directly into a scintillation vial to which is added 1 mL tetrahydrofuran. 10 mL aquasol (scintillation cocktail) is added to all samples.

[1] = target: T2, human synovial fluid PLA2 (Homo sapiens, UniProt P14555); test: in vitro isolated phospholipase A2 assay, human synovial fluid PLA2; type: biochemical; conditions: for inhibition at 10 µM / inhibition at 50 µM: read-out: % Inhibition HSF (human synovial fluid)
T2 construct: Purified human synovial fluid; from tissue; host or cells: human synovial fluid
T2 sequence (P14555 21-144): T1 sequence (P14555 21-144)
Procedure: as §1, §2, §3, §4, §5, §6, §7, §8, §9, §10, §11, §12, §13

cyclooxygenase (PGE2) = test: resident murine peritoneal macrophage assay, PGE2; type: cell-based, mouse (Swiss Webster); conditions: Mus musculus, Peritoneal macrophage
Procedure: (§14) The ability of the compounds of the invention to act as inhibitors of the enzymes 5-lipoxygenase and cyclooxygenase is measured in the resident murine peritoneal macrophage assay.
Resident peritoneal macrophages are collected from female Swiss Webster mice (49 days old, 20-25 gms, Buckshire) by lavaging with 7-8 ml Hanks Balanced Salt Solution (HBSS) without Ca^++ and Mg^++ (GIBCO). The lavage fluid from several mice is pooled and centrifuged at 4° C. for 10 minutes at 400 xg. The cell pellet is resuspended in Medium 199 (GIBCO) with HEPES buffer containing 100 μg/ml gentamicin. Two ml of the cell suspension (4×10^6 cells) are then plated on 35 mm culture dishes (Nunc).
A macrophage monolayer is established after a 1-1.5 hour incubation of the cells at 37° C. in an atmosphere of […] and 5% CO2. The monolayers are washed 2× with 2 ml HBDSS, containing Ca^++ and Mg^++ after which 2 ml Medium 199 supplemented with 10% freshly thawed heat-inactivated fetal bovine serum and 100 μg/ml gentamicin is added for an overnight incubation.
(§15) Residual serum and cellular debris are removed from the monolayers by washing 3× with 2 ml HBSS containing Ca^++ and Mg^++. Macrophages are preincubated for 5 minutes with 1 ml serum-free M199 containing 10 μl dimethyl sulfoxide (DMSO) vehicle or test compound prior to cell activation with zymosan ([…]) or arachidonic acid (AA) (2 μM). After 2 hours, the supernatants are removed and either assayed for LTC4 and PGE2 by radioimmunoassay (RIA) directly or stored at -20° C. In all cases, results are expressed as ng metabolite/4×10^6 cells.
(§16) Raw data (dpm) may be stored directly onto an "Autostart" tape using the HP85 in room C-096. The raw data are converted to ng metabolite/4-10^6cells using the standard curve by a "RIANAL" program (HP85) or a "NONLIN" program (HP9816). Results are then expressed as percent inhibition of zymosan induced, leukotriene or prostaglandin synthesis (control) using the equation: [formula]

5-lipoxygenase (LTC4) = test: resident murine peritoneal macrophage assay, LTC4; type: cell-based, mouse (Swiss Webster); conditions: Mus musculus, Peritoneal macrophage; zymosan stimulation; 0.1 μM
Procedure: as §14
Resident peritoneal macrophages are collected from female Swiss Webster mice (49 days old, 20-25 gms, Buckshire) by lavaging with 7-8 ml Hanks Balanced Salt Solution (HBSS) without Ca^++ and Mg^++ (GIBCO). The lavage fluid from several mice is pooled and centrifuged at 4° C. for 10 minutes at 400 xg.
as §15, §16

[2] = at 10 μM, + values given without explanation

Row | Compound | inhibition at 10 µM (human platelet PLA2; [2]) [%] | inhibition at 10 µM [1, 2] [%] | other results
1 | 4-Hydroxy-3-(1-oxoeicosanoyl)-2(5H)-furanone [Example 11] |  |  | % Inhibition HP (human platelet) (human platelet PLA2; [2]): 6.7%; % Inhibition HSF (human synovial fluid) [1, 2]: 32%
2 | CCCC[C@@H]1C[C@@H]1CCCCCCCC(=O)C1=C(O)COC1=O (relative stereo) [Example 54, 4-Hydroxy-3-[(Z)-8-(2-butylcyclopropyl)-1-oxooctyl]-2(5H)-furanone] |  |  | inhibition at 0.1 µM (cyclooxygenase (PGE2); zymosan stimulation, 0.1 μM): 49.5%; inhibition at 0.1 µM (5-lipoxygenase (LTC4)): 59.3%
3 | CCCCCC#CCC#CCC#CCC#CCCCC(=O)O [ETYA, reference compound] |  |  | IC50 (cyclooxygenase (PGE2); reference compounds, 95% confidence limits on next line, read-out: IC50 PGE2): 1.26 µM
4 | O=C(CCc1ccccc1)C1=C(O)COC1=O [Example 2, 4-Hydroxy-3-(1-oxo-3-phenylpropyl)-2(5H)-furanone] |  |  | inhibition at 50 µM (human platelet PLA2): 8%; inhibition at 50 µM [1]: 27%
5 | O=C(COCc1ccccc1)C1=C(O)COC1=O [Example 3, 4-Hydroxy-3-[(phenylmethoxy)acetyl]-2(5H)-furanone] |  |  | inhibition at 50 µM (human platelet PLA2): 3.5%; inhibition at 50 µM [1]: 25%
6 | O=C(CCc1c[nH]c2ccccc12)C1=C(O)COC1=O [Example 4, 4-Hydroxy-3-[3-(1H-indol-3-yl)-1-oxopropyl]-2(5H)-furanone] |  |  | inhibition at 50 µM (human platelet PLA2): 10%; inhibition at 50 µM [1]: 25%
7 | O=C(CCCc1c[nH]c2ccccc12)C1=C(O)COC1=O [Example 5, 4-Hydroxy-3-[4-(1H-indol-3-yl)-1-oxobutyl]-2(5H)-furanone] |  |  | inhibition at 50 µM (human platelet PLA2): 0%; inhibition at 50 µM [1]: 11%
8 | O=C(/C=C/c1cccc(C(F)(F)F)c1)C1=C(O)COC1=O [Example 10, (E)-4-Hydroxy-3-(1-oxo-3-(3-(trifluoromethyl)phenyl)-2-propenyl)-2 (5H)-furanone] | 9.6 | 34 | 
9 | COc1ccc(/C=C/C(=O)C2=C(O)COC2=O)cc1OC [Example 16, (E)-3-(3-(3,4-Dimethoxyphenyl)-1-oxo-2-propenyl)-4-hydroxy-2 (5H)-furanone] | 2.1 | 5.5 | 
10 | CCCCCCCC/C=C\CCCCCCCC(=O)C1=C(O)C(C)(C)OC1=O [Example 17, (Z)-4-Hydroxy-5,5-dimethyl-3-(1-oxo-9-octadecenyl)-2(5H)-furanone] | 16 | 9 | 
11 | CCCCCCCC/C=C\CCCCCCCC(=O)OCC(CCC(=O)C1=C(O)COC1=O)OC(=O)CCCCCCC/C=C\CCCCCCCC (stereo not drawn) [Example 24, (Z)-9-Octadecanoic acid 5-(2,5-dihydro-4-hydroxy-3-furanyl)-5-oxo-1,2-pentanediyl ester] | 56.6 | 79.5 | 
12 | CCCCCCCCC#CCCCCCCCC(=O)C1=C(O)COC1=O [Example 27, 4-Hydroxy-3-(1-oxo-9-octadecynyl)-2(5H)-furanone] | 34.9 | 31.2 | 
13 | O=C(CCCCCCCCOc1ccc(Cl)cc1)C1=C(O)COC1=O [Example 29, 3-[9-(4-Chlorophenoxy)-1-oxononyl]-4-hydroxy-2(5H)-furanone] | 20.6 | 33.6 | 
14 | CCCCCCOc1ccc(OCCCCCC(=O)C2=C(O)COC2=O)cc1 [Example 33, 4-Hydroxy-3-[6-[4-(hexyloxy)phenoxy]-1-oxohexyl]-2(5H)-furanone] | 37.1 | 10 | 
15 | CCCCCCCC/C=C/CCCCCCCC(=O)C1=C(O)COC1=O [Example 36, 4-Hydroxy-3-((E)-1-oxo-9-octadecenyl)-2(5H)-furanone] | 25.4 | 10.3 | 
16 | CCCCCCCc1ccc(OCCCCCC(=O)C2=C(O)COC2=O)cc1 [Example 37, 3-[6-(4-Heptylphenoxy)-1-oxohexyl]-4-hydroxy-2(5H)-furanone] | 22.5 | 35.7 | 
17 | CCCCCCCC/C=C\CCCCCCCCNC(=O)OC(CCC(=O)O)COC/C=C(\C)CCC=C(C)C (stereo not drawn) [Example 40A, 5-[((E)-3,7-Dimethyl-2,6-octadienyl)oxy]-4-[[((Z)-9-octadecenylamino)carbonyl]oxy]pentanoic acid] | 87.7 | 74.2 | 
18 | CC1=C(CC(=O)O)c2cc(F)ccc2/C1=C\c1ccc([S+](C)[O-])cc1 (stereo not drawn) [sulindac, reference compound] |  |  | IC50 [1]: 30.2 µM

The next lines start with results.

Row | inhibition at 10 µM (human platelet PLA2; [2]) [%] | inhibition at 10 µM [1, 2] [%] | Compound | other results
19 | 8.4 | 18.6 | CCCCCCCC[C@@H]1C[C@@H]1CCCCCCCC(=O)C1=C(O)CSC1=O (relative stereo) [Example 52, 4-Hydroxy-3-[(Z)-8-(2-octylcyclopropyl)-1-oxooctyl]-2(5H)-thiophenone] | 
20 | 1.7 | 0.1 | CCCCC[C@@H]1C[C@@H]1CC(=O)C1=C(O)COC1=O (relative stereo) [Example 53, 4-Hydroxy-3-[(Z)-1-oxo-2-(2-pentylcyclopropy)ethyl]-2(5H)-furanone] | 
21 | 11 | 34 | COc1ccc(OC)c(/C=C/C(=O)C2=C(O)COC2=O)c1 [Example 13, (E)-3-(3-(2,5-Dimethoxyphenyl)-1-oxo-2-propenyl)-4-hydroxy-2 (5H)-furanone] | 
22 | 2.5 | 24 | O=C(CCCCCOc1ccc(Cl)cc1)C1=C(O)COC1=O [Example 21, 4-Hydroxy-3-[6-(4-chlorophenoxy)-1-oxohexyl]-2(5H)-furanone] | 
23 | 45.4 | 80.7 | CCCCCCCC/C=C\CCCCCCCC(=O)OCC(CCC(=O)O)OC(=O)CCCCCCC/C=C\CCCCCCCC (stereo not drawn) [Example 24A, 4,5-Bis[((Z)-1-oxo-9-octadecenyl)oxy]pentanoic acid] | 
24 | 37.4 | 12.6 | CCCCCCCCCCCCCCCCCC(=O)C1=C(O)COC1=O [Example 28, 4-Hydroxy-3-(1-oxooctadecyl)-2(5H)-furanone] | 
25 | 33.5 | 34.5 | CCCCCCCCCCCCNC(=O)OCC(CCC(=O)C1=C(O)COC1=O)OC(=O)NCCCCCCCCCCCC (stereo not drawn) [Example 31, Dodecylcarbamic acid 5-(2,5-dihydro-4-hydroxy-2-oxo-3-furanyl)-5-oxo-1,2-pentanediyl ester] | 
26 | 47.7 | 43.2 | CCCCCCCCCCCCNC(=O)OCC(CCC(=O)O)OC(=O)NCCCCCCCCCCCC (stereo not drawn) [Example 31A, 4,5-Bis[[(Dodecylamino)carbonyl]oxy]pentanoic acid] | 
27 | 31.6 | 15.1 | O=C(CCCCCOc1ccc(OCc2ccc(Cl)cc2)cc1)C1=C(O)COC1=O [Example 32, 4-Hydroxy-3-[6-[4-[(4-chlorophenyl)methoxyphenoxy]]1-oxohexyl]-2(5H)-furanone] | 
28 | 24.4 | 20.3 | CC(C)(C)CC(C)(C)c1ccc(OCCCCCC(=O)C2=C(O)COC2=O)cc1 [Example 39] | 
